Laboratory results as given in US9078811B2, “Methods of increasing oral bioavailability of tetracyclines” (Paratek Pharmaceuticals, Inc., priority 2006, dated 2015).
Where a name gives a salt, the structure may show the parent alone.

Experiments:
Assay type in all cases: in vivo
[1] = PK and bioavailability following intra-duodenal administration in rats
Procedure: In order to measure the effect of delivering 9-[(2,2, dimethyl-propyl amino)-methyl]-minocycline directly into the duodenum, rats bearing duodenal cannulas were administered 9-[(2,2, dimethyl-propyl amino)-methyl]-minocycline freebase alone or in combination with bioavailability enhancing agents to assess their effects on bioavailability.

[2] = Effects of permeability enhancers on bioavailability, oral gavage in rats
Procedure: As a control, a solution of 9-[(2,2, dimethyl-propyl amino)-methyl]-minocycline freebase (“freebase”) was prepared using sterile water and the final pH was adjusted to ˜5. To prepare the sodium caprate (sodium decanoate, a compound that increases paracellular permeability) containing solution, the freebase was first dissolved in sterile water and sodium caprate was then added to a final concentration of 13 mM. The resulting solution was administered to rats via oral gavage without pH adjustment. The solution of freebase containing 1.5% chitosan was then prepared by first dissolving the freebase in sterile water and then adjusting the pH of this solution (pH ˜8.1) to a final pH ˜5 using 1N HCl. Chitosan was then added to a final concentration of 1.5% and the resulting solution was administered to rats via oral gavage as a slurry.

[3] = PK and oral bioavailability following dosing via oral gavage in rats
Procedure: Solutions of 9-[(2,2, dimethyl-propyl amino)-methyl]-minocycline freebase (5 mg/kg [2 ml/kg]) were administered by oral gavage. The solutions were composed of 9-[(2,2, dimethyl-propyl amino)-methyl]-minocycline alone or in combination with bioavailability enhancing agents to assess their effect on oral bioavailability.
The % F was calculated using the IV data presented in Example 1 and the equation: % F=Oral AUC/IV AUC.

[4] = PK following intravenous administration in rats; conditions: for AUC: IV 1 mg/kg, jugular vein
Procedure: The bioavailability of 9-[(2,2, dimethyl-propyl amino)-methyl]-minocycline following intravenous administration in rats was studied. The freebase (“FB”) and the HCl salt (“HCl salt”) of 9-[(2,2, dimethyl-propyl amino)-methyl]-minocycline were used. All formulations were prepared fresh on the day of the experiment. Samples for pharmacokinetic analysis were collected from a cannula within the carotid artery of the rats. Intravenous doses of (1 mg/kg) were administered to rats through cannulas in either the jugular or portal veins.

[5] = rats with duodenal cannulas, intra-duodenal administration

Row | % F [1, 5] [%] | AUC [1, 5] [ng·h/mL] | change in AUC when administered directly to the duodenum ([1]; rats, intra-duodenal) | % F [2] [%] | AUC [2] [ng·h/mL] | % F (oral bioavailability) ([3]; oral gavage 5 mg/kg, calculated using the IV data of Example 1) [%] | AUC ([3]; oral gavage, 5 mg/kg [2 ml/kg] solution) [ng·h/mL] | AUC ([4]; fasted, 1 mg/kg) | differences in pharmacokinetic parameters, freebase vs HCl salt ([4]; IV, fasted animals) | effects of first pass hepatic elimination on pharmacokinetics ([4]; after IV dosing) | AUC ([4]; fed) [µg·h/mL] | total exposure (AUC) and clearance, portal vein vs jugular vein ([4]; IV, fasted animals) | tendency for higher clearance in a fed group ([4]; IV, fed vs fasted) [%] | SMILES
1 | 15.4 ± 5.2 | 440 ± 150 | significant increase in AUC | 11.7 ± 4.1 | 330 ± 120 | 11.7 ± 4.1 | 330 ± 120 | 0.57 (0.50; 0.63) ug*hr/mL | no significant differences | no significant effects | – | – | – | CN(C)c1cc(CNCC(C)(C)C)c(O)c2c1C[C@H]1C[C@H]3[C@H](N(C)C)C(O)=C(C(N)=O)C(=O)[C@@]3(O)C(O)=C1C2=O [FB, 9-[(2,2, dimethyl-propylamino)-methyl]-minocycline]
2 | – | – | – | – | – | – | – | 0.59 (0.45; 0.73) ug*hr/mL | no significant differences | – | 0.46 ± 0.04 | equal | ~22 | CN(C)c1cc(CNCC(C)(C)C)c(O)c2c1C[C@H]1C[C@H]3[C@H](N(C)C)C(O)=C(C(N)=O)C(=O)[C@@]3(O)C(O)=C1C2=O [HCl salt, 9-[(2,2, dimethyl-propylamino)-methyl]-minocycline]
